Strand notation (5' to 3'): a small letter for the sugar, then the base; units joined by * are phosphorothioate-linked, units joined directly phosphodiester-linked; [ ] holds rarer units or linkages, { } end groups; capitals alone tell only the bases. e = 2'-O-(2-methoxyethyl) (MOE); [5mC] = 5-methylcytosine; d = 2'-deoxy (DNA)
Key:
Type in all cases: cell-based
[1] = system: human Factor 7 mRNA; assay: Antisense inhibition of human Factor 7 mRNA in HepB3 cells, 50 nM antisense oligonucleotide, lipofectin; conditions: for % Inhibition (human Factor 7 mRNA levels): oligonucleotides targeted to nucleobases 13760 to 13789 of SEQ ID NO: 1 (Table 10); for % Inhibition of human Factor 7 mRNA levels: gapmers targeted to nucleobases 4868 to 4899 of SEQ ID NO: 1, Table 8; for % Inhibition: Table 13 (microwalk), 50 nM, lipofectin, approximately 24 hours
Procedure, shortened: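 Percent inhibition, untreated cells as reference: derived from RNA collected about 24 hours post-transfection of 4,000-cell wells, with the human RTS 2927 primer probe set and adjustment for total RNA content (RIBOGREEN®).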

[2] = system: human Factor 7 mRNA; assay: Dose-dependent antisense inhibition of human Factor 7 in HepB3 cells, lipofectin; conditions: HepB3 cells, approx. 16 hours (Table 14)
Procedure, shortened: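 HepB3 cells (4,000/well) lipofectin-transfected with antisense oligonucleotide at 3.125 or 6.25 up to 100 nM for ~16 h. Factor 7 mRNA measured by real-time RT-PCR with primer probe set RTS 2927, adjusted to RIBOGREEN total RNA; expressed as percent inhibition versus untreated control cells.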

[3] = system: human Factor 7 mRNA; assay: Dose-dependent antisense inhibition of human Factor 7 in HepB3 cells, electroporation
Description: (§1) The gapmers were also transfected via electroporation and their dose-dependent inhibition of human Factor 7 mRNA was measured. Cells were plated at a density of 20,000 cells per well and transfected via electroporation with 3.125 μM, 6.25 μM, 12.5 μM, 25 μM, 50 μM, and 100 μM concentrations of antisense oligonucleotide, as specified in Table 15. After a treatment period of approximately 16 hours, RNA was isolated from the cells and Factor 7 mRNA levels were measured by quantitative real-time PCR. Human Factor 7 primer probe set RTS 2927 was used to measure mRNA levels. Factor 7 mRNA levels were adjusted according to total RNA content, as measured by RIBOGREEN®. Results are presented as percent inhibition of Factor 7, relative to untreated control cells.
as §1, with “Cells were” for “The gapmers were also transfected via electroporation and their dose-dependent inhibition of human Factor 7 mRNA was measured. Cells were”, “in […]. After a” for “in Table 15. After a”, “cells and human Factor 7” for “cells and Factor 7”

[4] = 3.125 μM, approx. 16 hours (Table 15, Example 7)
[5] = 3.125 μM, approx. 16 hours (Table 16, Example 8 confirmation)
[6] = 6.25 μM, approx. 16 hours (Table 15, Example 7)
[7] = 6.25 μM, approx. 16 hours (Table 16, Example 8 confirmation)
[8] = 12.5 μM, approx. 16 hours (Table 15, Example 7)
[9] = 12.5 μM, approx. 16 hours (Table 16, Example 8 confirmation)
[10] = 25 μM, approx. 16 hours (Table 15, Example 7)
[11] = 25 μM, approx. 16 hours (Table 16, Example 8 confirmation)
[12] = 50 μM, approx. 16 hours (Table 15, Example 7)
[13] = 50 μM, approx. 16 hours (Table 16, Example 8 confirmation)
[14] = 100 μM, approx. 16 hours (Table 15, Example 7)
[15] = 100 μM, approx. 16 hours (Table 16, Example 8 confirmation)

Row | Substance | % Inhibition (human Factor 7 mRNA levels) [1] | percent inhibition of Factor 7 mRNA, relative to untreated control cells ([2]; 3.125 nM) | percent inhibition of Factor 7 mRNA, relative to untreated control cells ([2]; 12.5 nM) | percent inhibition of Factor 7 mRNA, relative to untreated control cells ([2]; 25 nM) | percent inhibition of Factor 7 mRNA, relative to untreated control cells ([2]; 50 nM) | percent inhibition of Factor 7 mRNA, relative to untreated control cells ([2]; 100 nM) | percent inhibition of Factor 7 mRNA, relative to untreated control cells [2] | percent inhibition of Factor 7 mRNA, relative to untreated control cells [3, 4] | percent inhibition of Factor 7 mRNA, relative to untreated control cells [3, 5] | percent inhibition of Factor 7 mRNA, relative to untreated control cells [3, 6] | percent inhibition of Factor 7 mRNA, relative to untreated control cells [3, 7] | percent inhibition of Factor 7 mRNA, relative to untreated control cells [3, 8] | percent inhibition of Factor 7 mRNA, relative to untreated control cells [3, 9] | percent inhibition of Factor 7 mRNA, relative to untreated control cells [3, 10] | percent inhibition of Factor 7 mRNA, relative to untreated control cells [3, 11] | percent inhibition of Factor 7 mRNA, relative to untreated control cells [3, 12] | percent inhibition of Factor 7 mRNA, relative to untreated control cells [3, 13] | percent inhibition of Factor 7 mRNA, relative to untreated control cells [3, 14] | percent inhibition of Factor 7 mRNA, relative to untreated control cells [3, 15] | % Inhibition of human Factor 7 mRNA levels [1] | further results
1 | 422183 (antisense eG*e[5mC]*eG*d[5mC]*d[5mC]*dA*d[5mC]*d[5mC]*d[5mC]*dG*d[5mC]*d[5mC]*dG*dG*d[5mC]*dT*d[5mC]*eT*eG*e[5mC]) [compound 422183] | 79% | 28% | 56% | 78% | 84% | 88% | 37% | 16% | 2% | 28% | 3% | 37% | 24% | 44% | 50% | 59% | 64% | 71% | 71% | – | –
2 | 422215 (antisense eG*eT*eT*d[5mC]*dT*dG*d[5mC]*dA*dG*dG*dA*dG*d[5mC]*dG*dG*d[5mC]*d[5mC]*eT*eA*eA) [compound 422215] | – | 13% | 54% | 65% | 84% | 82% | 30% | 11% | – | 9% | – | 31% | – | 50% | – | 68% | – | 84% | – | 73% | –
3 | 422217 (antisense eG*eA*eG*dT*dT*d[5mC]*dT*dG*d[5mC]*dA*dG*dG*dA*dG*d[5mC]*dG*dG*e[5mC]*e[5mC]*eT) [compound 422217] | – | 8% | 45% | 63% | 79% | 83% | 18% | 15% | – | 19% | – | 29% | – | 55% | – | 61% | – | 83% | – | 75% | –
4 | 422228 (antisense eT*eG*d[5mC]*dA*dT*dG*dG*dT*dG*dA*dT*dG*d[5mC]*dT*dT*e[5mC]*eT*eG*eA*eA) [compound 422228] | – | 17% | 43% | 60% | 78% | 90% | 25% | 18% | – | 33% | – | 40% | – | 47% | – | 71% | – | 83% | – | – | % Inhibition [1]: 73%
5 | 422229 (antisense eA*eT*dG*d[5mC]*dA*dT*dG*dG*dT*dG*dA*dT*dG*d[5mC]*dT*eT*e[5mC]*eT*eG*eA) [compound 422229] | – | 21% | 53% | 72% | 86% | 92% | 32% | 21% | 30% | 30% | 45% | 33% | 67% | 44% | 79% | 65% | 90% | 77% | 92% | – | % Inhibition [1]: 71%
6 | 422252 (antisense e[5mC]*eG*d[5mC]*d[5mC]*dG*dG*d[5mC]*dT*d[5mC]*dT*dG*d[5mC]*dT*d[5mC]*dA*eT*e[5mC]*e[5mC]*e[5mC]*e[5mC]) [compound 422252] | 70% | 18% | 45% | 61% | 77% | 87% | 17% | 23% | – | 12% | – | 26% | – | 38% | – | 58% | – | 80% | – | – | –

Source: US9029337B2, “Modulation of factor 7 expression” (Isis Pharmaceuticals, Inc., priority 2007, dated 2015)
